This passage reports pest or weed control results from patent US8940913B2, “Herbicides” (Syngenta Crop Protection, LLC, priority 2007, dated 2015).

What all share (type): in vivo
Test [1] concerns Alopecurus myosuroides (ALOMY). Kind of test: Pre-emergence herbicidal activity, glasshouse pot test. As to conditions: 480 h, rate 250 g/ha, evaluated 20 days later, 100=total damage to plant, 0=no damage to plant. The method in brief:
(§1)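 Pot test, glasshouse: sow in standard soil; spray day 1 (pre-em.) or day 10 (post-em.); aqueous spray from acetone solution + formulation (10.6% Emulsogen EL, 42.2% NMP, 42.2% DPGME, 0.2% X-77); score 0–100 at 20 d pre / 15 d post.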

Test [2] has as its system Avena fatua (AVEFA). The test is described as above. To be noted: 480 h, rate 250 g/ha, evaluated 20 days later, 100=total damage to plant, 0=no damage to plant. The essentials: as §1
Test [3] concerns Digitaria sanguinalis (DIGSA). The test is described as above. As to conditions: 480 h, rate 250 g/ha, evaluated 20 days later, 100=total damage to plant, 0=no damage to plant. The method in brief: as §1
Test [4] has as its system Echinochloa crus-galli (ECHCG). The description is as above. As to conditions: 480 h, rate 250 g/ha, evaluated 20 days later, 100=total damage to plant, 0=no damage to plant. The method in brief: as §1
Test [5] deals with Lolium perenne (LOLPE). The description is as above. To be noted: 480 h, rate 250 g/ha, evaluated 20 days later, 100=total damage to plant, 0=no damage to plant. The method in brief:
as §1

For test [6], the system named is Setaria faberi (SETFA). The description is as above. To be noted: 480 h, rate 250 g/ha, evaluated 20 days later, 100=total damage to plant, 0=no damage to plant. The method in brief:
as §1

Test [7] deals with Alopecurus myosuroides (ALOMY). Kind of test: Post-emergence herbicidal activity, glasshouse pot test. To be noted: 360 h, rate 125 g/ha, evaluated 15 days later, 100=total damage to plant, 0=no damage to plant. The essentials:
as §1

Test [8] relates to Avena fatua (AVEFA). Described as above. To be noted: 360 h, rate 125 g/ha, evaluated 15 days later, 100=total damage to plant, 0=no damage to plant. The method in brief: as §1
The test system of test [9] is Digitaria sanguinalis (DIGSA). The test is described as above. As to conditions: 360 h, rate 125 g/ha, evaluated 15 days later, 100=total damage to plant, 0=no damage to plant. The essentials: as §1
Test [10] deals with Echinochloa crus-galli (ECHCG). The test is described as above. As to conditions: 360 h, rate 125 g/ha, evaluated 15 days later, 100=total damage to plant, 0=no damage to plant. The method in brief:
as §1

Test [11] relates to Lolium perenne (LOLPE). Described as above. As to conditions: 360 h, rate 125 g/ha, evaluated 15 days later, 100=total damage to plant, 0=no damage to plant. The method in brief: as §1
Test [12] relates to Setaria faberi (SETFA). The description is as above. As to conditions: 360 h, rate 125 g/ha, evaluated 15 days later, 100=total damage to plant, 0=no damage to plant. The method in brief: as §1

With `CCc1ccc(-c2ccc(Cl)cc2)cc1C1=C(O)[C@H]2[C@@H](C1=O)[C@@H]1C=C[C@H]2O1` (racemic) [Compound T4, (1RS,2SR,6RS,7SR)-4-(4′-chloro-4-ethylbiphen-3-yl)-10-oxatricyclo[5.2.1.0^2,6]dec-8-ene-3,5-dione], the pest or weed control – broadly, how far the test organism was held down – at 250 g/ha amounted to 60% in test [1]; 50% in test [2]; 100% in test [3]; 100% in test [4]; 60% in [5]; 100% in test [6]. Further, the pest or weed control at 125 g/ha worked out at 80% in test [7]; 60% in test [8]; 100% in test [9]; 100% in test [10]; 80% in test [11]; 100% in test [12].

Consider `Cc1cc(-c2ccccc2)cc(C)c1C1=C(OC(=O)C(C)(C)C)[C@H]2[C@@H](C1=O)[C@]1(C)CC[C@H]2O1` [Compound P7], for which the pest or weed control at 250 g/ha in test [1] worked out at 100%; in test [2], 90%; in test [3] it was 100%; in test [4], 90%; in test [5], 100%; in test [6], 100%. Besides, the pest or weed control at 125 g/ha in test [7] came out at 100%; in test [8] it was 100%; in test [9] it was 100%; in [10], 100%; in [11] it was 80%; in test [12], 100%.

Turning to `Cc1cc(-c2ccccc2)cc(C)c1C1=C(OC(=O)C(C)(C)C)[C@H]2[C@@H](C1=O)[C@@H]1CC[C@@]2(C)O1` [Compound P8], the pest or weed control at 250 g/ha in test [1] turned out to be 100%; in test [2], 90%; in [3], 100%; in [4], 90%; in [5], 100%; in test [6] it was 100%. Further, the pest or weed control at 125 g/ha turned out to be 100% in [7]; 100% in test [8]; 100% in test [9]; 100% in test [10]; 80% in test [11]; 100% in test [12].

As to `CCc1ccc(-c2ccc(Cl)c(F)c2)cc1C1=C(O)[C@H]2[C@@H](C1=O)[C@]1(C)CC[C@@]2(C)O1` [Compound T33], the pest or weed control at 250 g/ha in test [1] stood at 20%; in test [2], 0%; in [3] it was 70%; in [4], 70%; in [5], 50%; in [6], 80%. Besides, the pest or weed control at 125 g/ha in test [7] amounted to 100%; in [8], 100%; in test [9], 100%; in test [10] it was 100%; in test [11], 80%; in [12], 100%.

In the case of `Cc1cc(-c2ccccc2)cc(C)c1C1=C(OC(=O)C(C)C)[C@H]2[C@@H](C1=O)[C@@H]1CC[C@H]2O1` [Compound P2], the pest or weed control at 250 g/ha in test [1] stood at 100%; in test [2], 70%; in test [3] it was 100%; in [4] it was 80%; in test [5], 90%; in test [6] it was 100%. Further, the pest or weed control at 125 g/ha in test [7] was determined as 100%; in test [8], 80%; in test [9] it was 90%; in test [10], 100%; in test [11] it was 90%; in test [12], 100%.

Regarding `CCc1ccc(-c2ccc(Cl)cc2F)cc1C1=C(O)[C@H]2[C@@H](C1=O)[C@]1(C)CC[C@@]2(C)O1` (racemic) [Compound T23, (1RS,2SR,6RS,7SR)-4-(4′-chloro-4-ethyl-2′-fluorobiphen-3-yl)-1,7-dimethyl-10-oxatricyclo[5.2.1.0^2,6]decane-3,5-dione], the pest or weed control at 250 g/ha in test [1] stood at 40%; in test [2] it was 60%; in [3], 100%; in test [4] it was 100%; in [5], 70%; in [6], 100%. Also, the pest or weed control at 125 g/ha in test [7] is 100%; in [8], 100%; in test [9], 90%; in [10], 100%; in test [11], 70%; in [12], 90%.

Take `CCc1ccc(-c2ccc(Cl)cc2)cc1C1=C(O)[C@H]2[C@@H](C1=O)[C@@H]1CC[C@H]2O1` [Compound T2]: the pest or weed control at 250 g/ha worked out at 70% in test [1]; 40% in test [2]; 70% in test [3]; 90% in test [4]; 50% in test [5]; 80% in test [6]. The pest or weed control at 125 g/ha stood at 100% in test [7]; 100% in test [8]; 100% in [9]; 100% in [10]; 80% in [11]; 100% in [12].
